Results taken from patent US7514426B2, “Substituted imidazol[1,5-A][1,2,4]triazolo[1,5-D][1,4]benzodiazepine derivatives” (priority 2004, dated 2009).
Where two headings read alike, the source gives them in different places.

Columns and labels:
Assay in all cases: [3H]flumazenil competition binding, HEK293 cell membranes
[1] = target: T1, human GABA A receptor α1β3γ2 (Homo sapiens, UniProt P14867+P18507)
T1 construct: expressed in transfected cells; host or cells: HEK293
Method: (§1) The affinity of compounds at GABA A receptor subtypes was measured by competition for [^3H]flumazenil (85 Ci/mmol; Roche) binding to HEK293 cells expressing rat (stably transfected) or human (transiently transfected) receptors of composition α1β3γ2, α2β3γ2, α3β3γ2 and α5βγ2.
(§2) Cell pellets were suspended in Krebs-tris buffer (4.8 mM KCl, 1.2 mM CaCl2, 1.2 mM MgCl2, 120 mM NaCl, 15 mM Tris; pH 7.5; binding assay buffer), homogenized by polytron for ca. 20 sec on ice and centrifuged for 60 min at 4° C. (50000 g; Sorvall, rotor: SM24=20000 rpm). The cell pellets were resuspended in Krebs-tris buffer and homogenized by polytron for ca. 15 sec on ice. Protein was measured (Bradford method, Bio-Rad) and aliquots of 1 mL were prepared and stored at −80° C.
(§3) Radioligand binding assays were carried out in a volume of 200 μL (96-well plates) which contained 100 μL of cell membranes, [^3H]flumazenil at a concentration of 1 nM for α1, α2, α3 subunits and 0.5 nM for α5 subunits and the test compound in the range of 10^−10-3×10^−6 M. Nonspecific binding was defined by 10^−5 M diazepam and typically represented less than 5% of the total binding. Assays were incubated to equilibrium for 1 hour at 4° C. and harvested onto GF/C uni-filters (Packard) by filtration using a Packard harvester and washing with ice-cold wash buffer (50 mM Tris; pH 7.5). After drying, filter-retained radioactivity was detected by liquid scintillation counting. Ki values were calculated using Excel-Fit (Microsoft) and are the means of two determinations.

[2] = target: T2, human GABA A receptor α2β3γ2 (Homo sapiens, UniProt P18507+P47869)
T2 construct: expressed in transfected cells; host or cells: HEK293
Method: as §1, §2, §3

[3] = target: T3, human GABA A receptor α3β3γ2 (Homo sapiens, UniProt P18507+P34903)
T3 construct: expressed in transfected cells; host or cells: HEK293
Method: as §1, §2, §3

[4] = target: T4, human GABA A receptor α5βγ2 (Homo sapiens, UniProt P18507+P31644)
T4 construct: expressed in transfected cells; host or cells: HEK293
Method: as §1, §2, §3

[5] = human α1β3γ2, transiently transfected HEK293, 1 nM [3H]flumazenil, mean of two determinations, read-out: Ki[nM] hα1
[6] = human α2β3γ2, transiently transfected HEK293, 1 nM [3H]flumazenil, mean of two determinations, read-out: Ki[nM] hα2
[7] = human α3β3γ2, transiently transfected HEK293, 1 nM [3H]flumazenil, mean of two determinations, read-out: Ki[nM] hα3
[8] = human α5βγ2, transiently transfected HEK293, 0.5 nM [3H]flumazenil, mean of two determinations, read-out: Ki[nM] hα5

| Compound | Ki [1] | Ki [2] | Ki [3] | Ki [4] | Ki [1, 5] | Ki [2, 6] | Ki [3, 7] | Ki [4, 8] |
| --- | --- | --- | --- | --- | --- | --- | --- | --- |
| FCc1ncn2c1Cn1ncnc1-c1cc(Cl)ccc1-2 [Example 1, 3-Chloro-10-fluoromethyl-9H-imidazo[1,5-a][1,2,4]triazolo[1,5-d][1,4]benzodiazepine] | 59.1 nM | 67 nM | 40 nM | 9.4 nM |  |  |  |  |
| FC(F)c1ncn2c1Cn1ncnc1-c1cc(Cl)ccc1-2 [Example 2, 3-Chloro-10-difluoromethyl-9H-imidazo[1,5-a][1,2,4]triazolo[1,5-d][1,4]benzodiazepine] | 52.9 nM | 81.3 nM | 47.9 nM | 5.6 nM |  |  |  |  |
| FCc1ncn2c1Cn1ncnc1-c1cc(F)ccc1-2 [Example 3, 3-Fluoro-10-fluoromethyl-9H-imidazo[1,5-a][1,2,4]triazolo[1,5-d][1,4]benzodiazepine] | 49.9 nM | 25.4 nM | 26.2 nM | 9.1 nM |  |  |  |  |
| Fc1ccc2c(c1)-c1ncnn1Cc1c(C(F)F)ncn1-2 [Example 4, 3-Fluoro-10-difluoromethyl-9H-imidazo[1,5-a][1,2,4]triazolo[1,5-d][1,4]benzodiazepine] | 34.4 nM | 14.4 nM | 15.6 nM | 6.8 nM |  |  |  |  |
| Fc1ccc2c(c1)-c1ncnn1Cc1c(C(F)(F)F)ncn1-2 [Example 5, 3-Fluoro-10-trifluoromethyl-9H-imidazo[1,5-a][1,2,4]triazolo[1,5-d][1,4]benzodiazepine] | 39 nM | 23.9 nM | 27.7 nM | 7 nM |  |  |  |  |
| FCc1ncn2c1Cn1ncnc1-c1cc(Br)ccc1-2 [Example 6, 3-Bromo-10-fluoromethyl-9H-imidazo[1,5-a][1,2,4]triazolo[1,5-d][1,4]benzodiazepine] | 215 nM | 261 nM | 108 nM | 8.7 nM |  |  |  |  |
| FC(F)c1ncn2c1Cn1ncnc1-c1cc(Br)ccc1-2 [Example 7, 3-Bromo-10-difluoromethyl-9H-imidazo[1,5-a][1,2,4]triazolo[1,5-d][1,4]benzodiazepine] |  |  |  |  | 174 nM | 185 nM | 79.6 nM | 4.6 nM |
| FCc1ncn2c1Cn1ncnc1-c1cc(C3CC3)ccc1-2 [Example 8, 3-Cyclopropyl-10-fluoromethyl-9H-imidazo[1,5-a][1,2,4]triazolo[1,5-d][1,4]benzodiazepine] | 272 nM | 276 nM | 270 nM | 14.7 nM |  |  |  |  |
| FC(F)c1ncn2c1Cn1ncnc1-c1cc(C3CC3)ccc1-2 [Example 9, 3-Cyclopropyl-10-difluoromethyl-9H-imidazo[1,5-a][1,2,4]triazolo[1,5-d][1,4]benzodiazepine] |  |  |  | 13.3 nM | 216 nM | 160 nM | 192 nM |  |
| CCc1ccc2c(c1)-c1ncnn1Cc1c(C(F)F)ncn1-2 [Example 10, 10-Difluoromethyl-3-ethyl-9H-imidazo[1,5-a][1,2,4]triazolo[1,5-d][1,4]benzodiazepine] |  |  |  | 31.7 nM | 272 nM | 624 nM | 480 nM |  |
| FC(F)c1ncn2c1Cn1ncnc1-c1cc(Cc3ccccc3)ccc1-2 [Example 11, 3-Benzyl-10-difluoromethyl-9H-imidazo[1,5-a][1,2,4]triazolo[1,5-d][1,4]benzodiazepine] |  |  |  | 26.4 nM | 455 nM | 904 nM | 488 nM |  |
| C#Cc1ccc2c(c1)-c1ncnn1Cc1c(C(F)F)ncn1-2 [Example 12, 10-Difluoromethyl-3-ethynyl-9H-imidazo[1,5-a][1,2,4]triazolo[1,5-d][1,4]benzodiazepine] |  |  |  | 16.9 nM | 1460 nM | 416 nM | 512 nM |  |
| N#Cc1ccc2c(c1)-c1ncnn1Cc1c(C(F)F)ncn1-2 [Example 13, 3-Cyano-10-difluoromethyl-9H-imidazo[1,5-a][1,2,4]triazolo[1,5-d][1,4]benzodiazepine] | 246 nM | 246 nM | 106 nM | 16.5 nM |  |  |  |  |
| CC(F)(F)c1ncn2c1Cn1ncnc1-c1cc(F)ccc1-2 [Example 14, 10-(1,1-Difluoro-ethyl)-3-fluoro-9H-imidazo[1,5-a][1,2,4]triazolo[1,5-d][1,4]benzodiazepine] |  | 98.8 nM | 73.5 nM | 26.6 nM | 163 nM |  |  |  |
| CCC(F)(F)c1ncn2c1Cn1ncnc1-c1cc(F)ccc1-2 [Example 15, 10-(1,1-Difluoro-propyl)-3-fluoro-9H-imidazo[1,5-a][1,2,4]triazolo[1,5-d][1,4]benzodiazepine] | 15 nM | 11.3 nM | 8.9 nM | 3.2 nM |  |  |  |  |
| FC(F)c1ncn2c1Cn1ncnc1-c1ccccc1-2 [Example 16, 10-Difluoromethyl-9H-imidazo[1,5-a][1,2,4]triazolo[1,5-d][1,4]benzodiazepine] | 28.3 nM | 13.9 nM | 10.5 nM | 1.6 nM |  |  |  |  |
| FC(F)c1ncn2c1Cn1ncnc1-c1cc(N3CCOCC3)ccc1-2 [Example 17, 3-Morpholin-4-yl-10-difluoromethyl-9H-imidazo[1,5-a][1,2,4]triazolo[1,5-d][1,4]benzodiazepine] |  |  |  |  | 1870 nM | > 3160 nM | > 3160 nM | 272 nM |
| CCC(F)c1ncn2c1Cn1ncnc1-c1cc(Br)ccc1-2 (stereo not drawn) [Example 18, 3-Bromo-10-(1-fluoro-propyl)-9H-imidazo[1,5-a][1,2,4]triazolo[1,5-d][1,4]benzodiazepine] |  |  |  | 37.5 nM | 787 nM | 764 nM | 650 nM |  |
| CCC(F)(F)c1ncn2c1Cn1ncnc1-c1cc(Br)ccc1-2 [Example 19, 3-Bromo-10-(1,1-difluoro-propyl)-9H-imidazo[1,5-a][1,2,4]triazolo[1,5-d][1,4]benzodiazepine] | 32.9 nM |  | 77.2 nM | 6.4 nM |  | 147 nM |  |  |
| Cc1nc2n(n1)Cc1c(CF)ncn1-c1ccc(Cl)cc1-2 [Example 20, 3-Chloro-10-fluoromethyl-6-methyl-9H-imidazo[1,5-a][1,2,4]triazolo[1,5-d][1,4]benzodiazepine] | 50.1 nM | 181 nM | 117 nM | 2.5 nM |  |  |  |  |
| COc1ccc(-c2nc3n(n2)Cc2c(CF)ncn2-c2ccc(Cl)cc2-3)cc1OC [Example 21, 3-Chloro-6-(3,4-dimethoxyphenyl)-10-fluoromethyl-9H-imidazo[1,5-a][1,2,4]triazolo[1,5-d][1,4]benzodiazepine] |  |  |  |  | > 3160 nM | > 3160 nM | > 3160 nM | 152 nM |
